Data set [1] relates to ICR mice. The data set is described as follows: Anti-shock action (endotoxin-induced lethality). Format: in vivo, mouse. The settings on record: 32 nmol/kg × 4 intravenously, endotoxin (LPS E. coli 0127B8) 10 mg/kg i.v. after 10 minutes; male ICR mice; control 80. The method, then:
In this experiment, male ICR mice (each group consisted of 10 mice) each having a weight of 25 g to 35 g were used. Each of peptides Nos. 1, 31 and 32 was dissolved in a sodium acetate buffered solution (pH 6.0) added with 1% BSA or in a physiological saline.
An endotoxin to induce a shock was obtained by dissolving Lipopolysaccharide [E. coli; 0127B8 (Difco)] in a physiological saline.
Each of peptialdes Nos. 1, 31 and 32 was intravenously injected at a by dose of 5 ml/kg to each mouse, and the endotoxin with concentration of 10 mg/kg was intravenously injected at a dose of 5 ml/kg after 10 minutes. The lethal rates (%) of these mice within 24 hours were measured. As a control, 5 ml/kg of the sodium acetate buffered solution added with 1% BSA was injected instead of the hexapeptide of the present invention.

Data set [2] has as its system ddY mice. In words: Acute toxicity test. Format: in vivo, mouse. The settings on record: intravenous injection, 2,000 times (64 μmol/kg) the effective amount. The method, then:
An acute toxicity test of peptides Nos. 1, 31 and 32 of the present invention was performed by using, ddY mice. […] No toxic expression was therefore observed.

Data set [3] concerns the target thrombin (Homo sapiens, UniProt P00734). The data set is described as follows: Protease inhibition action (thrombin, synthetic coloring base S-2238). Format: biochemical. The conditions noted are these: thrombin final conc. 10 U/ml, preincubated at 37° C. for 5 minutes, S-2238 37° C. 15 minutes, 405 nm. Here is the method:
Each of peptides Nos. 1, 31 to 34 was mixed at various volume with thrombin (final conc. 10 U/ml), and the resultant mixture was preincubated at 37° C. for 5 minutes. A synthetic coloring base (Test Team^R S-2238 available from Daiichi Kagaku Yakuhin) was added to the above preincubated mixture and was reacted at 37° C. for 15 minutes.
2% citric acid was added to the above mixture to stop the reaction. Hydrolysis was performed using residual thrombin, and free p-nitroaniline removed from the synthetic coloring base was subjected to colorimetric determination at a wavelength of 405 nm, thereby obtaining the inhibition capability with reference to 0.1M tris buffer. On the base of the inhibition capability thus obtained, a concentration of the peptides when each peptide inhibited the activity of thrombin with 50%, i.e. IC50 was calculated.

The test system of data set [4] is Wister rats. The data set is described as follows: Anti-allergic action (passive cutaneous anaphylaxis reaction). Format: in vivo, rat. The settings on record: PCA reaction, 32 nmol g/kg i.v. 10 minutes before provocation, control 188.3 ± 9.71. Here is the method: In this experiment, 6-week, male Wister rats (each group consisted of 10 rats) were used, and the back of these rats were shaved.
An anti-egg albumin rat serum was diluted with a saline to forty-fold of its volume, thereby obtaining an anti-egg albumin rat serum solution. 1 ml of the anti-egg albumin rat serum solution was intradermally injected to both side parts against the median line in the shaved portion, thereby sensitizing passively the rats. After 48 hours, 1 ml of a 0.5% Evans blue solution containing 10 mg of a egg-albumin was intravenously injected to the each rat, thereby provocating a passive cutaneous anaphylaxis (PCA) reaction.
After 30 minutes, the rats were decapitated, thereby subjecting to hemorrhage to death. The skins were peeled from the rats, and a long diameter and a short diameter of a blue stained portions caused by the PCA reaction in each rat were measured, and area of the blue-stained portions were calculated on the base of the obtained data.
In these operations, the of peptides Nos. 1, 31 and 32 were dissolved in a sodium acetate buffered solution containing 1% BSA and was intravenously injected to each rat at 10 minutes before the provocation of the PCA reaction. As a control, the sodium acetate buffer solution containing 1% BSA instead of the peptide solutions was injected according to same procedure as described above.

Data set [5] concerns Hybrid grown-up dogs. In words: Anti-DIC action (platelet number after endotoxin). The data set is classed as in vivo, dog. Here is the method: Hybrid grown-up dogs (each group consisted of six dogs) were used in this experiment. 30 mg/kg of pentobarbital were intravenously injected to anesthetize each dog. Intravenous injection of 32 nmol/kg of each of peptides Nos. 1, 31 and 32 was performed. After 30 minutes, 3 mg/kg of an endotoxin derived from Escherichia Coli were intravenously injected while the artificial respiration was performed with air.
Samples of blood were collecting from each dog immediately before the injection of the peptides and 120 minutes after the injection of the endotoxin.
As a control, a experiment was performed according to same procedure as described above except that the hexapeptides was not injected.
The number of platelets is the number per 1 mm^3 (1 μl) of the blood in Table 7.

For data set [6], the system named is Wistar rats. The data set is described as follows: Anti-edematous action (freezing-induced vascular cerebral edema). Format: in vivo, rat. The conditions noted are these: left cerebral cortex, 32 nmol/kg i.v. 10 minutes before and 20 minutes after the freezing, male Wistar rats, control 81.4. The method, then:
In this experiment, 8-week male Wistar rats were used, and peptides Nos. 1, 31 and 32 dissolved in a saline added with 1% BSA were used.
Iron column whose diameter was 5 mm cooled by dryice acetone was placed on the left epidural portion of each rat to cause a vascular cerebral edema. Freezing was performed to form an injured portion after an hour, and the brain of each rat was taken out. The brain was divided into right and left cerebral cortices, and weights of the left cerebral cortices were measured. The left cerebral cortices was dried at 105° C. for 24 hours, and weights of the dried left cerebral cortices were measured to obtain water contents (%). In this operations, the peptides Nos. 1, 31 and 32 were intravenously injected at the concentration shown in Table 6 to each rat 10 minutes before and 20 minutes after the freezing. As a control, 1 ml/kg of the saline added with 1% BSA instead of the peptides was injected into rat according to same procedures as described above.

The subject of data set [7] is SD rats. In words: Wound healing action (traction tension of skin wound). The settings on record: skin wound stripe, eighth day; 32 nmol/kg i.v. once a day for 8 days; male SD rats; control 456.2 ± 21.6. Format: in vivo, rat. The text has this:
The male SD rats (each group consisted of 10 rats) were anesthetized with ether and shaved in the back of the each rat, and the anesthetized portion was formed by a length of 30 mm along the median line by using a degreased, sterilized razor blade. The wound was immediately sutured at three equidistant positions, and the stitches were taken out after three days. The rats were subjected to hemorrhage to death in the eighth day, and the skins were peeled from the rats.
A skin stripe having a size of 1 cm×4 cm was formed from a wounded portion of each rat. Both ends of this stripe were set in a wound curing measurement tensile test instrument (TK-251 available from Unicom), and a tensile force (traction tension: g/cm) required to cut the wound portion was measured.
Each hexapeptide compound according to the present invention was dissolved in an acetic acid buffer solution added with 1% BSA and was intravenously injected to each rat for 8 days (once a day) from the date of wound formation. As a control, 1 ml/kg of the sodium acetat buffered solution added with 1% BSA instead of the hexapeptide solutions was injected according to same procedure as described above.

In data set [8] the test system is Sprague-Dawley (SD) rats. The data set is described as follows: Vascular permeability acceleration suppression action (hot-water leg edema). Format: in vivo, rat. The conditions noted are these: suppression of rate of increase in leg volume vs control; 1 ml/kg into femoral vein 10 minutes before dipping leg in 58° C. hot water for one minute; male SD rats. Here is the method: After 6-week male Sprague-Dawley (SD) rats (each group consisted of 10 rats) were fed for a week, they were used in this experiment.
The concentrations of samples of the hexapeptides (peptide Nos. 1 to 30) were dissolved by an acetic acid buffer solution added with a 1% bovine serum albumin (BSA).
An aliqrot of 1 ml/kg of each of the peptides Nos. 1 to 30 was injected into the femoral vein of the right leg of each rat anesthetized with 50 mg/kg of Nembutal Sodium (available from Dainippon Pharmaceutical Co., Ltd.). After 10 minutes, the nontreated left leg of the rat was dipped in 58° C. hot water for one minute to form an edema. Each rat was left at room temperature for 29 minutes, and the volumes of both legs of each rat were measured. As a control, the experiment following the same procedure as describe above was performed except that 1 ml/kg of a sodium acetate buffered solution containing 1% BSA instead of the hexapeptide of the present invention was injected in rats.
A rate (%) of increase in leg volume was calculated from the result of the above measurement by equation (1) below: [formula]
The rates were compared with that of the control.
- X: rate of increase in leg volume (%) of the present invention.
Xo: rate of increase in leg volume (%) of the control

*1 amine or outer side, *2 acyl side, *3 side chain or, on linkers, in order; H or OH if unused. Where a SMILES comes first, the peptide text is derived from it. [ ]: non-standard residue; d: D form. X2 = CCCCN([C@@H](CCCNC(=N)N)C(=O)[*:2])[*:1]; Leu(ol) = CC(C)C[C@H](N)CO

The term IC50 denotes the concentration that gives 50% inhibition. Higher therefore signals weaker potency. Turning to `CC[C@H](C)[C@H](NC(=O)[C@H](Cc1ccc(O)cc1)NC(=O)[C@@H]1CCCN1C(=O)[C@H](CCCNC(=N)N)NC(=O)[C@H](CCCNC(=N)N)NC(C)=O)C(=O)N[C@@H](CC(C)C)C(N)=O` [Peptide No. 32, N-acetyl--Arg--Arg--Pro--Tyr--Ile--Leu--NH2], in data set [1], the “Lethal rate within 24 hours (%)” value was 20%. For the same compound, the “acute toxicity (death)” value in data set [2] is recorded as “No mice were dead”. 2200 nM corresponded to half-maximal inhibition in data set [3] (IC50). The “Area of blue-stained portion (mm^2)” value in data set [4] is reported as 112.8 ± 4.83 mm^2. In addition, the “Average Number of Platelets 120 Minutes after Venous Injection of Endotoxin” value in data set [5] (32 nmol/kg i.v. 30 minutes before 3 mg/kg E. coli endotoxin i.v., control 43 × 10^4) is given as 58 × 10^4 per 1 mm^3 (1 μl) of the blood. The “Average Number of Platelets Immediately before Injection Endotoxin” value in data set [5] (32 nmol/kg i.v., baseline sample, control 72 × 10^4) is given as 71 × 10^4 per 1 mm^3 (1 μl) of the blood. Besides, in data set [6], the “Water Content (%)” value is recorded as 80.6%. For the same compound, in data set [7], the “Traction Tension” value is 547.0 ± 32.3 g/cm.

Consider `CC[C@H](C)[C@H](NC(=O)[C@H](Cc1ccc(O)cc1)NC(=O)[C@@H]1CCCN1C(=O)[C@H](CCCNC(=N)N)NC(=O)CCCCNC(=N)N)C(=O)N[C@@H](CC(C)C)C(=O)O` [Peptide No. 1, Desamino-Arg--Arg--Pro--Tyr--Ile--Leu--OH], for which the “acute toxicity (death)” value in data set [2] is listed as “No mice were dead”. The compound further came in with a concentration for half-maximal inhibition (IC50) in data set [3] of 2500 nM.

The compound `CCCCN[C@@H](CCCNC(=N)N)C(=O)N[C@@H](CCCNC(=N)N)C(=O)N1CCC[C@H]1C(=O)N[C@@H](Cc1ccc(O)cc1)C(=O)N[C@H](C(=O)N[C@H](CO)CC(C)C)[C@@H](C)CC` [Peptide No. 33, N-buthyl--Arg--Arg--Pro--Tyr--Ile--Leucinol] (H-[X2]RPYI[Leu(ol)]) came in with an IC50 in data set [3] of 2300 nM.

Regarding “Desamino-Arg-D-Lys--Pro--Trp--Ile-Leucinol [Peptide No. 23]”, the “Suppression Rate (%)” value in data set [8] is recorded as 20.8%.

Consider `CC[C@H](C)[C@H](NC(=O)[C@H](Cc1ccc(O)cc1)NC(=O)[C@@H]1CCCN1C(=O)[C@H](CCCNC(=N)N)NC(=O)[C@H](CCCNC(=N)N)NC(C)=O)C(=O)N[C@H](CO)CC(C)C` [Peptide No. 31, N-acetyl--Arg--Arg--Pro--Tyr--Ile-Leucinol], for which the “acute toxicity (death)” value in data set [2] is listed as “No mice were dead”. For the same compound, in data set [3], the IC50 came out at 2300 nM.

The values are drawn from patent US5393740A, “Neurotensin Hexapeptides” (Tsumura & Co., priority 1991, dated 1995).
